# Experimental data as given in patent US10703746B2, “Mutant IDH1 inhibitors useful for treating cancer” (THE UNITED STATES OF AMERICA, AS REPRESENTED BY THE …, priority 2014, dated 2020).
# How the values were obtained:
# IDH1 R132H = IDH1 R132H (Homo sapiens, UniProt O75874, R132H); assay: IDH1 R132H enzymatic assay (NADPH depletion coupled to diaphorase/resazurin); type: biochemical
# IDH1 R132C = IDH1 R132C (Homo sapiens, UniProt O75874, R132C); assay: IDH1 R132C enzymatic assay (NADPH depletion coupled to diaphorase/resazurin); type: biochemical
# IDH1 R132C, sequence (O75874 whole entry R132C): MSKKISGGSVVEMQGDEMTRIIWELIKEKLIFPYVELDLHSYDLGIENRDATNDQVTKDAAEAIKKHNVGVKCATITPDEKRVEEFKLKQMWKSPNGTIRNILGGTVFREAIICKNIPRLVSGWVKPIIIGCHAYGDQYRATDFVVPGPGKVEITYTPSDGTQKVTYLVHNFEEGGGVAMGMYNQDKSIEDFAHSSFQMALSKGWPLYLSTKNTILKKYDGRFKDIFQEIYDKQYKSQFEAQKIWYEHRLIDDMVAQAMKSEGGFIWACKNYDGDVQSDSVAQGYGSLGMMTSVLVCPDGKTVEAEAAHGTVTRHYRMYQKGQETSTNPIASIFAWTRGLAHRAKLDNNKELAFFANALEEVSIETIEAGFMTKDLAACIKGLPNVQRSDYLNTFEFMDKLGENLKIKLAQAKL
# Outline: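 NADPH depletion, read via diaphorase/resazurin coupling, after adding substrate at 0.6 mM α-KG and 0.012 mM NADPH. Beforehand, 0.00032 mg/mL enzyme sat with compound 30 min at room temperature in pH 6.5 potassium phosphate buffer with MgCl2, glycerol and BSA.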
# [1] = IDH1 R132H enzymatic inhibition, IC50 class
# [2] = IDH1 R132C enzymatic inhibition, IC50 class
# [3] = enzymatic inhibition, IDH1 R132H
# [4] = enzymatic inhibition, IDH1 R132C
# IDH1 R132H, sequence (O75874 whole entry R132H): as the sequence (O75874 whole entry R132C) above, with C132H counted along it
IC50 (IDH1 R132H; [1]) [nM],IC50 (IDH1 R132C; [2]) [nM],IC50 (IDH1 R132H; [3]) [nM],IC50 (IDH1 R132C; [4]) [nM],SMILES
< 300,300 to 1000,,,CCc1cccc(CC)c1-n1c(C)c(C(=O)N2CCNC[C@H]2C)cc(-c2nc(-c3ccc(Cl)cc3)cs2)c1=O [Compound 142]
1000 to 5000,300 to 1000,,,CCc1cccc(CC)c1-n1c(C)c(C(=O)NC2CCNC2)cc(-c2nc(-c3ccc(Cl)cc3)cs2)c1=O (stereo not drawn) [Compound 99]
> 20000,1000 to 5000,,,CC(C)Sc1ccccc1-n1c2c(cc(-c3nc(-c4ccc(Cl)cc4)cs3)c1=O)C(=O)CC(C)(C)C2 [Compound 51]
,,< 300,< 300,CCOc1ccc(-n2ccc(-c3cc(C(=O)N4CCNCC4)c(C=C(C)C)n(-c4c(CC)cccc4CC)c3=O)n2)cc1 [Compound 552]
1000 to 5000,300 to 1000,,,CSc1ccccc1-n1c2c(cc(-c3nc(-c4ccc(Cl)cc4)cs3)c1=O)C(=O)CC(C)(C)C2 [Compound 164]
300 to 1000,< 300,,,CCc1cccc(CC)c1-n1c(C(C)C)c(C(=O)N2CCNC(CO)C2)cc(-c2nc(-c3ccc(Cl)cc3)cs2)c1=O (stereo not drawn) [Compound 84]
1000 to 5000,5000 to 20000,,,CCc1cccc(CC)c1-n1c(CC)c(C(=O)O)cc(-c2nc(-c3ccc(Cl)cc3)cs2)c1=O [Compound 236]
,,< 300,< 300,CCc1cccc(CC)c1-n1c(C=C(C)C)c(C(=O)N2CCNCC2)cc(-c2ccn(-c3ccc(OC4CC4)cc3)n2)c1=O [Compound 415]
< 300,< 300,,,CCc1cccc(CC)c1-n1c(C=C(C)C)c(C(=O)N2CCCNC(=O)C2)cc(-c2ccn(-c3ccc(Cl)cc3)n2)c1=O [Compound 635]
1000 to 5000,1000 to 5000,,,CCc1cccc(CC)c1-n1c2c(cc(-c3nc(-c4ccc(C)cn4)c(C)s3)c1=O)C(=O)CC(C)(C)C2 [Compound 292]
,,< 300,< 300,CCc1cccc(CC)c1-n1c(C=C(C)C)c(C(=O)N2CCNCC2)cc(-c2nc(-c3ccc(C(F)(F)F)nc3)cs2)c1=O [Compound 418]
,,> 20000,> 20000,Cc1[nH]c(=O)c(-c2nc(-c3ccc(Cl)cc3)cs2)cc1C(=O)N1CCNCC1 [Compound 595]
300 to 1000,300 to 1000,,,CCc1cccc(CC)c1-n1c2c(cc(-c3nc(-c4ccc(C)cc4)cs3)c1=O)C(=O)CC(C)(C)C2 [Compound 233]
< 300,300 to 1000,,,CCc1ncc(C)cc1-n1c(C=C(C)C)c(C(=O)N2CCNCC2)cc(-c2nc(-c3ccc(Cl)cc3)cs2)c1=O [Compound 330]
1000 to 5000,5000 to 20000,,,CCc1cccc(CC)c1-n1c2c(cc(-c3nc(C4=CCN(C(=O)OC(C)(C)C)CC4)c(C)s3)c1=O)C(=O)CC(C)(C)C2 [Compound 197]
300 to 1000,< 300,,,CCc1cccc(CC)c1-n1c(CC(C)C)c(C(=O)N2[C@H](C)CNC[C@@H]2C)cc(-c2nc(-c3ccc(Cl)cc3)cs2)c1=O [Compound 61]
1000 to 5000,1000 to 5000,,,CCc1cccc(CC)c1-n1c(C(C)C)c(C(=O)NC2CCNCC2)cc(-c2nc(-c3ccc(Cl)cc3)cs2)c1=O [Compound 35]
> 20000,> 20000,,,O=C1CCCc2c1cc(-c1nc(-c3ccc(Cl)cc3)cs1)c(=O)n2-c1ccccn1 [Compound 350]
,,300 to 1000,300 to 1000,CCc1cccc(CC)c1-n1c(CC(C)C)c(C(=O)N2CCNCC2)cc(-c2nc(-c3ccc(Cl)cc3OC)c(C)s2)c1=O [Compound 573]
> 20000,> 20000,,,COc1ccc(-n2cccc(-c3nc(-c4ccc(Cl)cc4)cs3)c2=O)c(OC)c1 [Compound 165]
300 to 1000,< 300,,,CCc1cccc(CC)c1-n1c(CC(C)C)c(C(=O)N2CCNC(C)(C)C2)cc(-c2nc(-c3ccc(Cl)cc3)cs2)c1=O [Compound 70]
,,< 300,< 300,CCc1cccc(CC)c1-n1c(CC(C)C)c(C(=O)N2CCNCC2)cc(-n2ccc(-c3ccc(Cl)cc3)n2)c1=O [Compound 452]
1000 to 5000,300 to 1000,,,Cc1ccccc1-n1c2c(cc(-c3nc(-c4ccc(Cl)cc4)cs3)c1=O)C(=O)CC(C)(C)C2 [Compound 22]
,,< 300,< 300,CC(C)=Cc1c(C(=O)N2CCNCC2)cc(-c2nc(-c3ccc(Cl)cc3)cs2)c(=O)n1-c1cc(C)ccc1OC(C)C [Compound 496]
< 300,< 300,,,CCc1cccc(CC)c1-n1c(C=C(C)C)c(C(=O)N2C(C)CNCC2C(=O)O)cc(-c2nc(-c3ccc(Cl)cc3)cs2)c1=O (stereo not drawn) [Compound 660]
300 to 1000,1000 to 5000,,,CCc1cccc(CC)c1-n1c(C)c(C(=O)NCCO)cc(-c2nc(-c3ccc(Cl)cc3)cs2)c1=O [Compound 153]
> 20000,1000 to 5000,,,CCc1cccc(CC)c1-n1c(C)c(C(=O)NCc2ccccc2)cc(-c2nc(-c3ccc(Cl)cc3)cs2)c1=O [Compound 192]

IC50 (IDH1 R132H; [1]) [nM],IC50 (IDH1 R132C; [2]) [nM],IC50 (IDH1 R132H; [3]) [nM],IC50 (IDH1 R132C; [4]) [nM],SMILES
300 to 1000,300 to 1000,,,CCc1cccc(CC)c1-n1c(CC(C)C)c(C(=O)N2CC(=O)N[C@@H](C(=O)O)C2)cc(-c2nc(-c3ccc(Cl)cc3)cs2)c1=O [Compound 297]
,,< 300,< 300,CCOc1ccc(Cl)cc1-n1c(C=C(C)C)c(C(=O)N2CCNCC2)cc(-c2nc(-c3ccc(Cl)cc3)cs2)c1=O [Compound 463]
300 to 1000,300 to 1000,,,Cc1cc(C#N)c(-n2c3c(cc(-c4nc(-c5ccc(Cl)cc5)cs4)c2=O)C(=O)CC(C)(C)C3)s1 [Compound 346]
5000 to 20000,1000 to 5000,,,CC1(C)CC(=O)c2cc(-c3nc(-c4ccc(Cl)cc4)cs3)c(=O)n(-c3ccccc3CO)c2C1 [Compound 269]
> 20000,1000 to 5000,,,CCc1cccc(CC)c1-n1c2c(cc(-c3nc(-c4cccc(Cl)c4)cs3)c1=O)C(=O)CC(C)(C)C2 [Compound 205]
< 300,< 300,,,CCc1cccc(CC)c1-n1c(C=C(C)C)c(C(=O)N2CCNC(C(F)(F)F)C2)cc(-c2nc(-c3ccc(Cl)cc3)cs2)c1=O (stereo not drawn) [Compound 396]
> 20000,1000 to 5000,,,Cc1noc(C)c1-n1c2c(cc(-c3nc(-c4ccc(Cl)cc4)cs3)c1=O)C(=O)CC(C)(C)C2 [Compound 13]
1000 to 5000,1000 to 5000,,,CC1(C)CC(=O)c2cc(-c3nc(-c4ccc(Cl)cc4)cs3)c(=O)n(-c3cc(C(F)(F)F)ccc3N3CCOCC3)c2C1 [Compound 92]
1000 to 5000,1000 to 5000,,,CCc1cccc(CC)c1-n1c(C)c(C(=O)N2CC(N)C2)cc(-c2nc(-c3ccc(Cl)cc3)cs2)c1=O [Compound 139]
300 to 1000,< 300,,,CCc1cccc(CC)c1N1C(=O)C(c2nc(-c3ccc(Cl)cc3)cs2)CC(C(=O)N2CCNCC2)=C1CC(C)C (stereo not drawn) [Compound 356]
< 300,< 300,,,CCc1ccc(N(C)C)cc1-n1c(C=C(C)C)c(C(=O)N2CCNCC2)cc(-c2nc(-c3ccc(Cl)cc3)cs2)c1=O [Compound 333]
< 300,< 300,,,CCOc1ccc(C)cc1-n1c(C=C(C)C)c(C(=O)N2CCNCC2)cc(-c2nc(-c3ccc(C(F)F)cc3)cs2)c1=O [Compound 386]
,,< 300,< 300,CCc1cccc(CC)c1-n1c(CC(C)C)c(C(=O)N2CCNCC2)cc(-c2nc(-c3ccc(Cl)nc3)c(C)s2)c1=O [Compound 405]
,,< 300,300 to 1000,CC(C)=Cc1c(C(=O)N2CCNCC2)cc(-c2nc(-c3ccc(Cl)cc3)cs2)c(=O)n1-c1cc(F)ccc1OC(C)C [Compound 530]
> 20000,> 20000,,,COc1ccc(OC)c(-n2c(=O)c(-c3nc(-c4ccc(Cl)cc4)cs3)cc3c(O)cncc32)c1 [Compound 190]
,,1000 to 5000,300 to 1000,CCc1cccc(CC)c1-n1c(CC(C)C)c(C(=O)N2CCNCC2)cc(-c2nc(/C=C/c3ccc(Cl)cc3)c(C)s2)c1=O [Compound 555]
< 300,< 300,,,CCc1cccc(CC)c1-n1c(CC(C)C)c(C(=O)N2CCNC(C(=O)O)C2)cc(-c2nc(-c3ccc(Cl)cc3)cs2)c1=O (stereo not drawn) [Compound 171]
,,< 300,< 300,CCc1cccc(CC)c1-n1c(C=C(C)C)c(C(=O)N2CCN[C@@H](C(=O)O)C2)cc(-c2nc(-c3ccc(C(F)(F)F)cc3)cs2)c1=O [Compound 577]
,,> 20000,> 20000,Cc1ccc(CN2CCN(C)CC2)cc1-n1c2c(cc(-c3nc(-c4ccc(Cl)cc4)cs3)c1=O)C(=O)CCC2 [Compound 563]
,,< 300,< 300,CCc1ccc(F)cc1-n1c(C=C(C)C)c(C(=O)N2CCNCC2)cc(-c2nc(-c3ccc(C(F)(F)F)cc3)cs2)c1=O [Compound 583]
300 to 1000,< 300,,,CCc1cccc(CC)c1-n1c(CC(C)C)c(C(=O)N2CCNCC2c2ccccc2)cc(-c2nc(-c3ccc(Cl)cc3)cs2)c1=O (stereo not drawn) [Compound 145]
,,< 300,< 300,CCc1cccc(CC)c1-n1c(C=C(C)C)c(C(=O)N2CCNCC2)cc(-c2nc(-c3ccc(C(F)(F)F)cn3)cs2)c1=O [Compound 515]
1000 to 5000,1000 to 5000,,,CCc1cccc(CC)c1-n1c(CC(C)C)c(C(=O)N2CCNCC2)cc(-c2ccn(-c3ccccc3)n2)c1=O [Compound 104]
1000 to 5000,< 300,,,CCc1cccc(CC)c1-n1c(C)c(C(=O)NCCNC)cc(-c2nc(-c3ccc(Cl)cc3)cs2)c1=O [Compound 15]
5000 to 20000,5000 to 20000,,,CCc1cccc(CC)c1-n1c(CC(C)C)c(C(=O)N2CCNCC2)cc(-c2nc(-c3ccc(N4CCOCC4)cc3)c(C)s2)c1=O [Compound 211]
1000 to 5000,1000 to 5000,,,CCc1cccc(CC)c1-n1c(C(C)C)c(C(=O)N[C@H](C)CO)cc(-c2nc(-c3ccc(Cl)cc3)cs2)c1=O [Compound 47]
,,1000 to 5000,5000 to 20000,Cc1ccccc1-n1c(C)c(C(=O)N2CCNCC2)cc(-c2nc(-c3ccc(Cl)cc3)cs2)c1=O [Compound 470]
